{"source": "patent US12533427B2", "about": "“Radioactive antitumor agent” (National Institutes for Quantum Science and Technology, priority 2017, dated 2026)", "key": {"[1]": {"system": "U87MG cells from human glioblastoma", "test": "Tumor growth in U87MG tumor-bearing mouse", "type": "in vivo, BALB/c nude mouse", "conditions": "for rate of tumor volume ratio to tumor volume ratio of the control group on day 39: single i.v. administration", "experimental": "(§1) U87MG cells from human glioblastoma were purchased from ATCC, and utilized after growing. A U87MG tumor-bearing model was made by implanting 1×10^7 U87MG cells subcutaneously into the flanks of BALB/c nude mouse (male, 6 weeks old, weighing approximately 20 to 25 g, obtained from Japan SLC). The tumor-bearing mice were subjected to tests when the tumor diameter reached around 5 mm after transplantation of U87MG cells.\n(§2) The tumor-bearing mice were randomized into […] (n=7/group), and were intravenously administered with different single doses of ^64Cu-ATSM with 18.5, 37, 74, 111 and 148 MBq, and physiological saline as a control, respectively. To the remaining one group, ^64Cu-ATSM was administered intravenously at a dose of 37 MBq on days 0, 7, 21 and 28 of four times in total (37 MBq×4).\n(§3) In each of the following evaluations, data were presented as mean value±standard deviation. Two-way analysis of variance was used in the significant difference test of the data, excluding the survival curve. A Log-rank test was used for the data of the survival curve. Significant levels used were all 5%.\n(§4) After the start of the study, mice were weighed twice a week over time, and the size of the tumor was measured with a caliper. The tumor volume was calculated with the formula: tumor volume=length×width^2×π/6, and the tumor volume on each day was expressed as a percentage relative to the initial tumor volume on day 0."}, "[2]": {"system": "U87MG cells from human glioblastoma", "test": "Survival curve for 80 days of U87MG tumor-bearing mice", "type": "in vivo, BALB/c nude mouse", "experimental": "as §1, §2, §3\nAfter the start of the study, the mice were slaughtered at the time when the tumor volume reached the humanitarian endpoint. Survivability for 80 days was observed, and the survival rate was calculated."}, "[3]": {"test": "Body weight change of U87MG tumor-bearing mice", "type": "in vivo, BALB/c nude mouse", "experimental": "as §2, §3, §4"}, "[4]": {"test": "Measurement of hematological parameters in non-tumor-bearing mice", "type": "in vivo, mouse", "experimental": "as §3\nTo evaluate side effects, hematological parameters were measured using non-tumor-bearing mice (n=5/group) treated in a manner similar to the tumor-bearing mice described above.\nThe measurement of hematological parameters was performed by measuring concentrations of white blood cells, red blood cells and platelets using blood collected from the vein at the start point (day 0) immediately before administration of ^64Cu-ATSM and on days 2, 7, 14, 21, 28, 35, 42 and 49 after administration of ^64Cu-ATSM, with a blood analyzer (Celltac MEK-6458, manufactured by NIHON KOHDEN CORPORATION)."}, "[5]": {"test": "Measurement of biochemical parameters (liver and renal function) in non-tumor-bearing mice", "type": "in vivo, mouse", "conditions": "any administration group; plasma, day 49", "experimental": "as §3\nTo evaluate side effects, biochemical parameters were measured using non-tumor-bearing mice (n=5/group) treated in a manner similar to the tumor-bearing mice described above.\nThe measurements of biochemical parameters were performed by measuring amounts of glutamate pyruvate transaminase and alkaline phosphatase for liver function and amounts of urea nitrogen and creatinine for renal function using mouse plasma prepared from blood collected from heart on day 49 after the first administration of ^64Cu-ATSM, with a blood biochemical analyzer (FUJI DRI-CHEM 7000VZ, manufactured by FUJIFILM Corporation)."}, "[6]": {"test": "Internal exposure dose estimate for human", "experimental": "Meanwhile, the internal exposure dose with ^64Cu-ATSM was maximum in the liver, and was 0.108 mSv/MBq. This means that when 150 MBq/kg of ^64Cu-ATSM is administered to a human weighing 60 kg, the exposure dose is 16.2 mGy/kg for the liver and 972 mSv for the whole body. When this exposure dose is applied to normal radiotherapy, it corresponds to an exposure equal to single irradiation of 1.215 Gy, which is lower than the single irradiation dose (1.8 to 2.0 Gy) of normal split irradiation in radiotherapy. Also, when 450 MBq/kg is administered to a human weighing 60 kg, the exposure dose is 48.6 mGy/kg for the liver and 2,916 mSv for the whole body. Since the tolerance dose of the liver in normal split irradiation is 30 Gy as a dose that causes side effects in 5% in 5 years, the total dose when administered a total of four times during normal radiotherapy of about 3 Gy will be 11.66 Gy, which is lower than the tolerance dose of the liver described above.\nThe present inventors have also reported estimates of irradiation doses of ^64Cu-ATSM for human based on in vivo distribution in normal mouse tissue (see, Yoshii Y, Furukawa T, Matsumoto H, Yoshimoto M, Kiyono Y, Zhang M R, Fujibayashi Y, and Saga T (2016) Cu-ATSM therapy targets regions with activated DNA repair and enrichment of CD133 cells in an HT-29 tumor model: Sensitization with a nucleic acid antimetabolite. Cancer Lett 376: 74-82 and Yoshii Y, Matsumoto H, Yoshimoto M, Furukawa T, Morokoshi Y, Sogawa C, Zhang M R, Wakizaka H, Yoshii H, Fujibayashi Y, and Saga T (2014) Controlled administration of penicillamine reduces radiation exposure in critical organs during ^64Cu-ATSM internal radiotherapy: a novel strategy for liver protection. PloS one 9: e86996). […] Thus, doses in the multiple administration of ^64Cu-ATSM to human according to the present invention can be determined as appropriate based on data of therapeutic effect and toxicity in mouse in the present invention. PET imaging of ^64Cu-ATSM may also be performed to monitor the irradiation dose of tumors and tissues during ^64Cu-ATSM therapy for human according to the present invention, thereby enabling theranostics of cancer."}, "CD133-positive cells": {"system": "CD133-positive cells", "conditions": "Non-Patent Literature 2; cited from earlier work"}, "[7]": {"system": "CD133-positive cells in tumors", "conditions": "Non-Patent Literatures 3 and 4; cited from earlier work"}, "[8]": {"system": "glioblastoma showing high HIF-1α expression", "conditions": "clinical PET investigations; cited from earlier work"}, "[9]": {"conditions": "therapeutic dose calculated from 37 MBq per mouse; cited from earlier work"}, "[10]": {"conditions": "37 MBq four-time administration (37 MBq×4)"}, "[11]": {"conditions": "111 and 148 MBq single administration"}, "[12]": {"conditions": "150 MBq/kg to a human weighing 60 kg"}, "[13]": {"conditions": "450 MBq/kg to a human weighing 60 kg"}}}
{"substance": "radioactive diacetyl-bis(N4-methylthiosemicarbazone) copper complex [^64Cu-ATSM]", "values": [{"measurement": "tumor growth compared to the control group", "setting": "[1]; 37 MBq four times (37 MBq×4)", "result": "significantly greater inhibition effect of tumor growth"}, {"measurement": "mice with tumors nearly invisible on day 39", "setting": "[1]; 37 MBq four-time administration (37 MBq×4), day 39", "result": 6, "unit": "cases among 7 mice"}, {"measurement": "rate of tumor volume ratio to that of the control group on day 39", "setting": "[1]; 37 MBq four-time administration (37 MBq×4; days 0, 7, 21, 28), i.v., day 39", "result": 0.04}, {"measurement": "rate of tumor volume ratio to tumor volume ratio of the control group on day 39", "setting": "[1]; fifth of five printed values, 148 MBq, day 39", "result": 0.14}, {"measurement": "rate of tumor volume ratio to tumor volume ratio of the control group on day 39", "setting": "[1]; first of five printed values, presumably 18.5 MBq, day 39", "result": 0.82}, {"measurement": "rate of tumor volume ratio to tumor volume ratio of the control group on day 39", "setting": "[1]; fourth of five printed values, presumably 111 MBq, day 39", "result": 0.14}, {"measurement": "rate of tumor volume ratio to tumor volume ratio of the control group on day 39", "setting": "[1]; second of five printed values, presumably 37 MBq, day 39", "result": 0.31}, {"measurement": "dose dependence of antitumor effect", "setting": "[1]; single administration 18.5-148 MBq", "result": "dose-dependent antitumor effect, showing a plateau at 111 MBq"}, {"measurement": "tumor growth compared to the control group", "setting": "[1]; single administration at 37, 74, 111 and 148 MBq, 39 days", "result": "significantly inhibited tumor growth"}, {"measurement": "tumor growth compared to the control group", "setting": "[1]; single administration of 18.5 MBq", "result": "inhibited tumor growth compared to the control group, but showed no significant difference"}, {"measurement": "rate of tumor volume ratio to tumor volume ratio of the control group on day 39", "setting": "[1]; third of five printed values, presumably 74 MBq, day 39", "result": 0.28}, {"measurement": "survival rate compared to the control group", "setting": "[2]; 37, 74, 111 and 148 MBq single administration groups and 37 MBq×4 group, 80 days", "result": "higher than that of the control group"}, {"measurement": "survival time compared to the 111 MBq single administration group", "setting": "[2]; [10]", "result": "longer survival time than the 111 MBq single administration group, but no significant difference"}, {"measurement": "life-extending effect compared to the control group, single administration groups", "setting": "[2]; 111 MBq single administration", "result": "significant life-extending effect"}, {"measurement": "survival effect among the single administration groups", "setting": "[2]; 111 MBq single administration", "result": "highest survival effect"}, {"measurement": "survival time compared to the 18.5, 37, 74 and 148 MBq single administration groups", "setting": "[2]; 111 MBq single administration group and 37 MBq×4 group", "result": "significantly longer survival time"}, {"measurement": "body weight loss", "setting": "[3]; [10]", "result": "No body weight loss was observed"}, {"measurement": "recovery of body weight", "setting": "[3]; [11]", "result": "returned to normal body weight by day 14"}, {"measurement": "body weight compared to the control group", "setting": "[3]; 111 and 148 MBq single administration, day 7", "result": "significantly reduced"}, {"measurement": "hematological toxicity", "setting": "[4]; 37 MBq four-time administration (37 MBq×4), throughout the study period", "result": "no symptoms of hematological toxicity were observed"}, {"measurement": "recovery of number of white blood cells", "setting": "[4]; 74, 111 and 148 MBq single administration", "result": "recovered to normal on day 21"}, {"measurement": "number of white blood cells (WBC)", "setting": "[4]; 74 and 111 MBq single administration, day 2", "result": "significant reductions"}, {"measurement": "number of platelets (PLT)", "setting": "[4]; 111 MBq single administration, day 7", "result": "significant reduction"}, {"measurement": "recovery of number of platelets", "setting": "[4]; [11]", "result": "recovered to normal on day 14"}, {"measurement": "number of white blood cells (WBC)", "setting": "[4]; 111 and 148 MBq single administration, days 7 and 14", "result": "significant reductions"}, {"measurement": "recovery of number of red blood cells", "setting": "[4]; 148 MBq single administration", "result": "recovered to normal on day 14"}, {"measurement": "number of red blood cells (RBC)", "setting": "[4]; 148 MBq single administration, day 7", "result": "significant reduction"}, {"measurement": "number of platelets (PLT)", "setting": "[4]; 148 MBq single administration, days 2 and 7", "result": "significant reductions"}, {"measurement": "alkaline phosphatase (ALP) compared to control", "setting": "[5]", "result": "no significant differences"}, {"measurement": "blood urea nitrogen (BUN) compared to control", "setting": "[5]", "result": "no significant differences"}, {"measurement": "creatinine (CRE) compared to control", "setting": "[5]", "result": "no significant differences"}, {"measurement": "glutamate pyruvate transaminase (GPT) compared to control", "setting": "[5]", "result": "no significant differences"}, {"measurement": "exposure dose for the liver", "setting": "[6]; [12]", "result": 16.2, "unit": "mGy/kg"}, {"measurement": "exposure dose for the whole body", "setting": "[6]; [12]", "result": 972, "unit": "mSv"}, {"measurement": "exposure equal to single irradiation of normal radiotherapy", "setting": "[6]; [12]", "result": 1.215, "unit": "Gy"}, {"measurement": "exposure dose for the liver", "setting": "[6]; [13]", "result": 48.6, "unit": "mGy/kg"}, {"measurement": "exposure dose for the whole body", "setting": "[6]; [13]", "result": "2,916 mSv"}, {"measurement": "total dose when administered a total of four times", "setting": "[6]; 450 MBq/kg to a human weighing 60 kg, four times", "result": 11.66, "unit": "Gy"}, {"measurement": "internal exposure dose, liver (maximum organ)", "setting": "[6]; liver", "result": 0.108, "unit": "mSv/MBq"}, {"measurement": "accumulation in cells", "setting": "CD133-positive cells", "result": "accumulates in CD133-positive cells"}, {"measurement": "effect on CD133-positive cells in tumors", "setting": "[7]", "result": "reduce CD133-positive cells in tumors"}, {"measurement": "accumulation in tumor (PET)", "setting": "[8]", "result": "accumulates in highly malignant grade glioblastoma showing high HIF-1α expression"}, {"measurement": "estimated irradiation doses to liver, red bone marrow and ovary in human", "setting": "[9]", "result": "lower than the acceptable dose"}]}
